ChEMBL document CHEMBL2331514, “Structure-based design and synthesis of novel pseudosaccharine derivatives as antiproliferative agents and kinase inhibitors” (Eur J Med Chem, 2013)

Legend:
[1] = Partition coefficient, log P of the compound; format: physicochemical; details: octanol/water
[2] = test system: TK-10; experiment: Cytotoxicity against human TK10 cells assessed as growth inhibition at 10 uM after 48 hrs by SRB assay; format: functional; details: TK-10, 48 h, read-out: GI
[3] = test system: RXF 393; experiment: Cytotoxicity against human RXF393 cells assessed as growth inhibition at 10 uM after 48 hrs by SRB assay; format: functional; details: RXF 393, 48 h, read-out: GI
[4] = test system: CAKI-1; experiment: Cytotoxicity against human Caki1 cells assessed as growth inhibition at 10 uM after 48 hrs by SRB assay; format: functional; details: CAKI-1, 48 h, read-out: GI
[5] = test system: A498; experiment: Cytotoxicity against human A498 cells assessed as growth inhibition at 10 uM after 48 hrs by SRB assay; format: functional; details: A498, 48 h, read-out: GI
[6] = test system: IGROV-1; experiment: Cytotoxicity against human IGROV1 cells assessed as growth inhibition at 10 uM after 48 hrs by SRB assay; format: functional; details: IGROV-1, 48 h, read-out: GI
[7] = test system: SK-MEL-5; experiment: Cytotoxicity against human SK-MEL-5 cells assessed as growth inhibition at 10 uM after 48 hrs by SRB assay; format: functional; details: SK-MEL-5, 48 h, read-out: GI
[8] = test system: SK-MEL-28; experiment: Cytotoxicity against human SK-MEL-28 cells assessed as growth inhibition at 10 uM after 48 hrs by SRB assay; format: functional; details: SK-MEL-28, 48 h, read-out: GI
[9] = test system: Malme-3M; experiment: Cytotoxicity against human MALME-3M cells assessed as growth inhibition at 10 uM after 48 hrs by SRB assay; format: functional; details: read-out: GI
[10] = test system: LOX IMVI; experiment: Cytotoxicity against human LOXIMVI cells assessed as growth inhibition at 10 uM after 48 hrs by SRB assay; format: functional; details: read-out: GI
[11] = test system: U-251; experiment: Cytotoxicity against human U251 cells assessed as growth inhibition at 10 uM after 48 hrs by SRB assay; format: functional; details: U-251, 48 h, read-out: GI
[12] = test system: SNB-75; experiment: Cytotoxicity against human SNB75 cells assessed as growth inhibition at 10 uM after 48 hrs by SRB assay; format: functional; details: SNB-75, 48 h, read-out: GI
[13] = test system: SNB-19; experiment: Cytotoxicity against human SNB19 cells assessed as growth inhibition at 10 uM after 48 hrs by SRB assay; format: functional; details: SNB-19, 48 h, read-out: GI
[14] = test system: SF-268; experiment: Cytotoxicity against human SF268 cells assessed as growth inhibition at 10 uM after 48 hrs by SRB assay; format: functional; details: SF-268, 48 h, read-out: GI
[15] = test system: NCI-H522; experiment: Cytotoxicity against human NCI-H522 cells assessed as growth inhibition at 10 uM after 48 hrs by SRB assay; format: functional; details: NCI-H522, 48 h, read-out: GI
[16] = test system: NCI-H322M; experiment: Cytotoxicity against human NCI-H322M cells assessed as growth inhibition at 10 uM after 48 hrs by SRB assay; format: functional; details: read-out: GI
[17] = test system: HOP-92; experiment: Cytotoxicity against human HOP92 cells assessed as growth inhibition at 10 uM after 48 hrs by SRB assay; format: functional; details: HOP-92, 48 h, read-out: GI
[18] = test system: HOP-62; experiment: Cytotoxicity against human HOP62 cells assessed as growth inhibition at 10 uM after 48 hrs by SRB assay; format: functional; details: HOP-62, 48 h, read-out: GI
[19] = test system: A549; experiment: Cytotoxicity against human A549/ATCC cells assessed as growth inhibition at 10 uM after 48 hrs by SRB assay; format: functional; details: A549, 48 h, read-out: GI
[20] = test system: RPMI-8226; experiment: Cytotoxicity against human RPMI8226 cells assessed as growth inhibition at 10 uM after 48 hrs by SRB assay; format: functional; details: RPMI-8226, 48 h, read-out: GI
[21] = test system: HL-60(TB); experiment: Cytotoxicity against human HL-60(TB) cells assessed as growth inhibition at 10 uM after 48 hrs by SRB assay; format: functional; details: HL-60, 48 h, read-out: GI
[22] = test system: MCF7; experiment: Cell cycle arrest in human MCF7 cells assessed as accumulation at G2/M phase at 10 uM after 24 hrs by propidium iodide staining-based FACS analysis (reference value: 4.80 %); format: functional
[23] = test system: MCF7; experiment: Cell cycle arrest in human MCF7 cells assessed as accumulation at S phase at 10 uM after 24 hrs by propidium iodide staining-based FACS analysis (reference value: 36.60 %); format: functional
[24] = test system: MCF7; experiment: Cell cycle arrest in human MCF7 cells assessed as accumulation at G1 phase at 10 uM after 24 hrs by propidium iodide staining-based FACS analysis (reference value: 58.50 %); format: functional
[25] = test system: MCF7; experiment: Cell cycle arrest in human MCF7 cells assessed as accumulation at G0 phase at 10 uM after 24 hrs by propidium iodide staining-based FACS analysis (reference value: 1.30 %); format: functional
[26] = biological target: Serine/threonine-protein kinase B-raf (Homo sapiens) (UniProt P15056); experiment: Inhibition of B-Raf kinase (unknown origin) using [33P]-ATP at 10 uM after 20 to 40 mins by scintillation counting analysis
Chain of Serine/threonine-protein kinase B-raf (Homo sapiens) (P15056 whole entry): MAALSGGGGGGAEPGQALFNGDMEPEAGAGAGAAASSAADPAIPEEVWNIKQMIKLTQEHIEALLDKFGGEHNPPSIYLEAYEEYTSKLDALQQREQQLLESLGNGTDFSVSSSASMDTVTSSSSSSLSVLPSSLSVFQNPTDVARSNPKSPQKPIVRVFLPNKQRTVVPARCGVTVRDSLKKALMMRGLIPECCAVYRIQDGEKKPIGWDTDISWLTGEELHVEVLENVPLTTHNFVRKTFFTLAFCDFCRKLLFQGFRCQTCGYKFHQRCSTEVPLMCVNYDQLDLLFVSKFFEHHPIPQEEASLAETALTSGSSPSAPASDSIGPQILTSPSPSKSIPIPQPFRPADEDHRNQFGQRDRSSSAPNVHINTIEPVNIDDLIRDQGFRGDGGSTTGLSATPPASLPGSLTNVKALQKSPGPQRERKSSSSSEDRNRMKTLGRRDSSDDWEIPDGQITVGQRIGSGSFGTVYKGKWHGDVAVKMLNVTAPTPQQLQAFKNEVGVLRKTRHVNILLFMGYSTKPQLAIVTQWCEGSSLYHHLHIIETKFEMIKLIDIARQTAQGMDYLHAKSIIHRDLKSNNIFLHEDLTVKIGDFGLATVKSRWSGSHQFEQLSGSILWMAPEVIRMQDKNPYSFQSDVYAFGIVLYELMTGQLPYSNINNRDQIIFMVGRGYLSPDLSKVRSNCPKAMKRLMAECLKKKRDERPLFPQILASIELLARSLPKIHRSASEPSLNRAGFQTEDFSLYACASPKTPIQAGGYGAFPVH

[27] = biological target: Proto-oncogene tyrosine-protein kinase Src (Homo sapiens) (UniProt P12931); experiment: Inhibition of Src kinase (unknown origin) using [33P]-ATP at 10 uM after 20 to 40 mins by scintillation counting analysis
Chain of Proto-oncogene tyrosine-protein kinase Src (Homo sapiens) (P12931 2-536 limits assumed): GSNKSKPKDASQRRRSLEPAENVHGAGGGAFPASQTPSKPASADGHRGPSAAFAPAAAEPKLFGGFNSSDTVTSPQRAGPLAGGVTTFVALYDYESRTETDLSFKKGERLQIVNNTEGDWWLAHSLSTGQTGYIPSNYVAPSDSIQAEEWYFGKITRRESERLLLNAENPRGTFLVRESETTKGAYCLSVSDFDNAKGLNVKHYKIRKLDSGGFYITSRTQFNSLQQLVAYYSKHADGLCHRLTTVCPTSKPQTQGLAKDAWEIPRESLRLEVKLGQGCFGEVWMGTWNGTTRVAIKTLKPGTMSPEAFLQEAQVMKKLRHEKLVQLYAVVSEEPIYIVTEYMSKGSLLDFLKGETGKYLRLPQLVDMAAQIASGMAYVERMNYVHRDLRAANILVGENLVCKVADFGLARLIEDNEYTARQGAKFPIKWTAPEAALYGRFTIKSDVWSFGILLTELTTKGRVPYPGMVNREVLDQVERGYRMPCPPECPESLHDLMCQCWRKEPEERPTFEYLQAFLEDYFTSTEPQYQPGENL

[28] = biological target: Tyrosine-protein kinase ZAP-70 (Homo sapiens) (UniProt P43403); experiment: Inhibition of ZAP-70 kinase (unknown origin) using [33P]-ATP at 10 uM after 20 to 40 mins by scintillation counting analysis
Chain of Tyrosine-protein kinase ZAP-70 (Homo sapiens) (P43403 whole entry): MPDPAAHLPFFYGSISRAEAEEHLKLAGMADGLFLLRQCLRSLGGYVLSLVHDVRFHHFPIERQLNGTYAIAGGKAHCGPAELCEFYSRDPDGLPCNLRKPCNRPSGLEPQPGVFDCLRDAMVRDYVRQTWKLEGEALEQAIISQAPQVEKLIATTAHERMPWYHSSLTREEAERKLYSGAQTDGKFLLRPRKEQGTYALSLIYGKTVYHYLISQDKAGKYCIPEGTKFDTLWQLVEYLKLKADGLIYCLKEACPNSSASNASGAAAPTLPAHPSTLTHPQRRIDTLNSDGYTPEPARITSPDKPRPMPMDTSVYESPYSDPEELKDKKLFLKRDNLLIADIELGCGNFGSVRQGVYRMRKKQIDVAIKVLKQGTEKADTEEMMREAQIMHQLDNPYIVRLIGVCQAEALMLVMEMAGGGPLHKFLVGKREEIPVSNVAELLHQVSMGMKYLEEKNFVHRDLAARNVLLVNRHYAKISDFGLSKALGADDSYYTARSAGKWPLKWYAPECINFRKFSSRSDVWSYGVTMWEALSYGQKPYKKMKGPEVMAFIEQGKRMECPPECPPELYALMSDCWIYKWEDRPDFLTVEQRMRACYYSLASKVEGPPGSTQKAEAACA

[29] = test system: MDA-MB-468; experiment: Cytotoxicity against human MDA-MB-468 cells after 48 hrs by SRB assay; format: functional; details: MDA-MB-468, 48 h
[30] = test system: T47D; experiment: Cytotoxicity against human T47D cells after 48 hrs by SRB assay; format: functional
[31] = test system: BT-549; experiment: Cytotoxicity against human BT549 cells after 48 hrs by SRB assay; format: functional; details: BT-549, 48 h, pooled result: one value given for 51 cell lines, strains, targets or settings
[32] = test system: MCF7; experiment: Cytotoxicity against human MCF7 cells after 48 hrs by SRB assay; format: functional; details: MCF7, 48 h
[33] = test system: PC-3; experiment: Cytotoxicity against human PC3 cells after 48 hrs by SRB assay; format: functional; details: PC-3, 48 h
[34] = test system: SF-295; experiment: Cytotoxicity against human SF295 cells after 48 hrs by SRB assay; format: functional; details: SF-295, 48 h
[35] = test system: NCI-H23; experiment: Cytotoxicity against human NCI-H23 cells after 48 hrs by SRB assay; format: functional; details: NCI-H23, 48 h
[36] = test system: RPMI-8226; experiment: Cytotoxicity against human RPMI8226 cells after 48 hrs by SRB assay; format: functional; details: RPMI-8226, 48 h
[37] = read-out: LC50 (the source's name)

O=C(Nc1ccc(OC2=NS(=O)(=O)c3ccccc32)cc1)Nc1ccccc1Cl
logP [1]: 3.55
inhibition of growth at 10 µM [2]: -17%
inhibition of growth at 10 µM [3]: 10%
inhibition of growth at 10 µM [4]: 6%
inhibition of growth at 10 µM [5]: 5%
inhibition of growth at 10 µM [6]: 0%
inhibition of growth at 10 µM [7]: 9%
inhibition of growth at 10 µM [8]: -8%
inhibition of growth at 10 µM [9]: 2%
inhibition of growth at 10 µM [10]: 15%
inhibition of growth at 10 µM [11]: 0%
inhibition of growth at 10 µM [12]: 18%
inhibition of growth at 10 µM [13]: -9%
inhibition of growth at 10 µM [14]: 14%
inhibition of growth at 10 µM [15]: 10%
inhibition of growth at 10 µM [16]: 2%
inhibition of growth at 10 µM [17]: -3%
inhibition of growth at 10 µM [18]: -8%
inhibition of growth at 10 µM [19]: 7%
inhibition of growth at 10 µM [20]: 7%
inhibition of growth at 10 µM [21]: 25%

O=C(Nc1ccc(Cl)cc1)Nc1ccc2c(c1)C(Nc1ccc(Cl)cc1Cl)=NS2(=O)=O
Activity [22]: 6.4%
Activity [23]: 15.2%
Activity [24]: 78.3%
Activity [25]: 1.4%
logP [1]: 4.24
inhibition [26]: -8%
inhibition [27]: 58%
inhibition [28]: 13%
GI50 [29]: 2.75 µM
TGI [29]: > 100 µM
CC50 [29, 37]: > 100 µM
GI50 [30]: 2.63 µM
TGI [30]: > 100 µM
CC50 [30, 37]: > 100 µM
GI50 [31]: 5.7 µM
GI50 [32]: 3.6 µM
GI50 [33]: 2.82 µM
TGI [33]: > 100 µM
CC50 [33, 37]: > 100 µM
GI50 [34]: 2.88 µM
TGI [34]: > 100 µM
CC50 [34, 37]: > 100 µM
GI50 [35]: 2.69 µM
TGI [35]: 12.3 µM
CC50 [35, 37]: > 100 µM
GI50 [36]: 2.19 µM
TGI [36]: 15.5 µM
CC50 [36, 37]: > 100 µM
inhibition of growth at 10 µM [2]: 57%
inhibition of growth at 10 µM [3]: 15%
inhibition of growth at 10 µM [4]: 83%
inhibition of growth at 10 µM [5]: 68%
inhibition of growth at 10 µM [6]: 54%
inhibition of growth at 10 µM [7]: 51%
inhibition of growth at 10 µM [8]: 42%
inhibition of growth at 10 µM [9]: 58%
inhibition of growth at 10 µM [10]: 72%
inhibition of growth at 10 µM [11]: 73%
inhibition of growth at 10 µM [12]: 30%
inhibition of growth at 10 µM [13]: 64%
inhibition of growth at 10 µM [14]: 40%
inhibition of growth at 10 µM [15]: 77%
inhibition of growth at 10 µM [16]: 27%
inhibition of growth at 10 µM [17]: 82%
inhibition of growth at 10 µM [18]: 33%
inhibition of growth at 10 µM [19]: 69%
inhibition of growth at 10 µM [20]: 98%
inhibition of growth at 10 µM [21]: 74%

O=C(Nc1ccccc1)Nc1ccc(OC2=NS(=O)(=O)c3ccccc32)cc1
logP [1]: 2.89
inhibition of growth at 10 µM [2]: -7%
inhibition of growth at 10 µM [3]: 5%
inhibition of growth at 10 µM [4]: 25%
inhibition of growth at 10 µM [5]: 17%
inhibition of growth at 10 µM [6]: -12%
inhibition of growth at 10 µM [7]: 17%
inhibition of growth at 10 µM [8]: -2%
inhibition of growth at 10 µM [9]: 21%
inhibition of growth at 10 µM [10]: 49%
inhibition of growth at 10 µM [11]: 21%
inhibition of growth at 10 µM [12]: 22%
inhibition of growth at 10 µM [13]: -1%
inhibition of growth at 10 µM [14]: 6%
inhibition of growth at 10 µM [15]: 21%
inhibition of growth at 10 µM [16]: 5%
inhibition of growth at 10 µM [17]: 2%
inhibition of growth at 10 µM [18]: -11%
inhibition of growth at 10 µM [19]: 22%
inhibition of growth at 10 µM [20]: 36%
inhibition of growth at 10 µM [21]: 23%
